From patent US20040225128A1 (priority 2001, published 2004)
Where a name gives a salt, the structure may show the parent alone. Read-outs that look alike come from different tables or passages of the source.

Tests used:
[1] = as described in European Patent 0223403B; cited from earlier work
[2] = as described in European Patent 0223403B; cited from earlier work; remark: listed apart in the source
Hygroscopicity = assay type: physicochemical

Structure (SMILES) | Hygroscopicity (in words) [1] | Stability (in words) [2] | Hygroscopicity (in words) (Hygroscopicity)
Fc1ccc([C@@H]2CCNC[C@H]2COc2ccc3c(c2)OCO3)cc1 [Example 9, paroxetine hydrochloride hemi hydrate] | non-hygroscopic | stable | 
Fc1ccc([C@@H]2CCNC[C@H]2COc2ccc3c(c2)OCO3)cc1 [Example 3, paroxetine isethionate] |  |  | practically no adverse hygroscopicity characteristics
